The record followed here is publication PMC4068353, “Characterization of 14-3-3-ζ Interactions with Integrin Tails” (Journal of Molecular Biology, 2013).

In general, Kd refers to the constant that tells how readily two partners part at equilibrium. High values mean weaker binding, low ones tighter binding.

Entries after “also recorded” stand apart in the source; their conditions may differ.

Assay [1] addresses T1, 14-3-3-ζ (Homo sapiens, UniProt P63104).
T1 construct: His10 (cleaved yes); made in house
T1 sequence (P63104 1-245): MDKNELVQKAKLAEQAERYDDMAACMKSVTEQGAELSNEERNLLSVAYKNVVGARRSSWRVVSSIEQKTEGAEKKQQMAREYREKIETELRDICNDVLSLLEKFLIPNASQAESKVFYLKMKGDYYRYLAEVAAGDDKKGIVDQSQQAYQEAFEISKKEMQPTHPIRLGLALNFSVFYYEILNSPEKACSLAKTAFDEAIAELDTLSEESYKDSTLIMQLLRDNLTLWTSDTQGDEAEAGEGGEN
Nature of the assay: Fluorescence polarization titration of fluorescein-labeled integrin tails with 14-3-3-ζ. Type of assay: binding. The conditions noted are these: 1 μM, ex 485 nm, em 520 nm; for binding to 14-3-3-ζ by fluorescence polarization, in words: fluorescein-labeled tail. On the procedure: Fig. 6 Fluorescence polarization and ITC of interactions between integrin tails and 14-3-3-ζ. (a) Fluorescence polarization titrations of fluorescein-labeled β1A, β3 and α4 with 14-3-3-ζ. […] (b–d) ITC sensorgram of an in-cell 200 μM β1A, β2 (same as in Fig. 5a) or β3 samples injected with 2 mM 14-3-3-ζ.
For fluorescence polarization experiments, integrin tails were labeled with fluorescein-5-maleimide (Invitrogen) linked to an engineered C-terminal Cys residue. Measurements were performed using 96-well microplates (Corning) in a PHERAstar FS microplate reader (BMG Labtech). Fluorescein-labeled integrin tails at 1 μM concentration were excited at 485 nm, and polarization was recorded at 520 nm.
On the technique in general: Polarisation of emitted light reports the rotation of a fluorescent probe.

Assay [2] has as its system paxillin (residues 1–323). Put plainly: NMR test of α4 integrin tail interaction with paxillin N-terminal region. Type of assay: binding. Conditions: paxillin residues 1–323 with all LD motifs. As for the experimental part: (§1) The interactions of α4 and 14-3-3-ζ with paxillin were also investigated. The association of paxillin with α4 has been detected using pull-down experiments with glutathione S-transferase fusion proteins[22,32,33] and, very recently, by NMR in a study that also reports the solution structure of the α4 integrin tail.[34] […] The possibility that a paxillin/14-3-3-ζ association depends on phosphorylation was also assessed. The ELM (eukaryotic linear motif) server[35] indicated three putative 14-3-3 binding motifs in the paxillin N-terminus; of these, only one has been reported to be phosphorylated in vivo[36] (Supplementary Fig. 1a). […] The recent report of paxillin binding to α4 detected by NMR used shorter paxillin fragments than us, covering the LD2–LD4 region.[34] It is possible that, in the whole N-terminal paxillin, the α4 interaction sites are masked, which would explain the absence of an interaction in our studies.
Samples were prepared in NMR buffer (pH 6.5) with 5% D2O, and experiments were performed at 25 °C. Titration experiments were collected on a 500-MHz spectrometer using a water flip-back-embedded gradient enhanced ^15N–^1H HSQC pulse sequence.[46] […] Data were processed using NMRPipe[47] and analyzed with the programs CARA/XEASY[48] or CCPN Analysis.[49]

Assay [3] deals with paxillin (residues 1–323). Put plainly: ITC test of pairwise interaction with paxillin N-terminal region. The format is binding. As for the experimental part:
as §1
Phosphorylated α4 synthetic peptides were purchased from GL Biochem Ltd. (Shanghai). All recombinant proteins and synthetic peptides were prepared in 20 mM sodium phosphate and 50 mM NaCl (pH 6.5), and concentrations were determined by UV absorbance at 280 nm. […] Raw data were processed and fitted with MicroCal Origin software using a one-site model where the error function is calculated as the sum of the squared deviations between the data and the model curve.

In assay [4] the target is T1, 14-3-3-ζ. Nature of the assay: 15N-1H HSQC NMR titration of 15N-labeled integrin tails with unlabeled 14-3-3-ζ. The conditions noted are these: 15N-labeled tail 0.1 mM, equimolar unlabeled 14-3-3-ζ; NMR buffer pH 6.5, 25 °C. Type of assay: binding. On the procedure: (§2) Samples were prepared in NMR buffer (pH 6.5) with 5% D2O, and experiments were performed at 25 °C. Titration experiments were collected on a 500-MHz spectrometer using a water flip-back-embedded gradient enhanced ^15N–^1H HSQC pulse sequence.[46] For the assignment of the α4 and β2 backbone resonances, ^15N–^13C integrin tails of 0.6 mM concentration were used to measure CBCA(CO)NH and CBCANH experiments on a Bruker 500-MHz instrument equipped with a cryogenic probe head. Data were processed using NMRPipe[47] and analyzed with the programs CARA/XEASY[48] or CCPN Analysis.[49]

Assay [5] concerns the target T1, 14-3-3-ζ. Put plainly: ITC of integrin tail fragments with 14-3-3-ζ. Conditions: 298 K, pH 6.5, fragment in cell, 14-3-3-ζ in syringe. Type of assay: binding. On the procedure:
Phosphorylated α4 synthetic peptides were purchased from GL Biochem Ltd. (Shanghai). All recombinant proteins and synthetic peptides were prepared in 20 mM sodium phosphate and 50 mM NaCl (pH 6.5), and concentrations were determined by UV absorbance at 280 nm. ITC experiments using a VP-ITC200 instrument (MicroCal) were performed at 298 K as follows: the cell (volume, ~ 200 μl) contained the different integrin tail fragments, and the syringe (volume, ~ 40 μl) contained 14-3-3-ζ. A first injection of 2 μl was followed by 15 injections of 2.5 μl, with a stirring speed of 1500 rpm and a delay between injections of 180 s. A blank titration was performed by injecting 14-3-3-ζ into buffer to take the heat of dilution into account. Experiments were repeated twice for each sample. Raw data were processed and fitted with MicroCal Origin software using a one-site model where the error function is calculated as the sum of the squared deviations between the data and the model curve.

The next assay relates to 14-3-3-ζ S58E. Nature of the assay: NMR binding of 14-3-3-ζ variant S58E to labeled integrin tail. The conditions noted are these: labeled β1A.
Text: (§3) To gain further insight into the β1A/14-3-3-ζ association, we investigated the effects of 14-3-3-ζ substitutions on binding to β1A integrin tail. It has been reported that the substitution S58A in 14-3-3-β abolishes the β1A interaction.[38] S58 regulates the dimeric state of 14-3-3,[39] but it is not involved directly in binding to phospho-peptides. The binding of 14-3-3-ζ variants S58A and S58E to labeled β1A was studied using NMR. […] A similar result was obtained with the β2 integrin tail (data not shown).
as §2

A further assay has as its system 14-3-3-ζ S58A. Put plainly: NMR binding of 14-3-3-ζ variant S58A to labeled integrin tail. The conditions noted are these: labeled β1A.
Text: as §3, §2

Take “GPLGSKAGFFKRQYKSILQEENRRDSWSYINSKSNDD [α4 wt, recombinant α4 integrin cytoplasmic tail, residues 1001–1032]”: the “binding to 14-3-3-ζ by fluorescence polarization, in words” value at 14-3-3-ζ [1] was “No binding was detected”. Moreover, in assay [2], the “interaction with paxillin by NMR, in words” value is listed as “no specific interaction”. Also, the “interaction with paxillin by ITC, in words” value in assay [3] is “no pairwise interaction was detected by ITC”. The “change of integrin tail resonances on addition of 14-3-3-ζ, in words” value at 14-3-3-ζ [4] is “significant decrease in α4 amide resonance intensities”. Further, the “binding to 14-3-3-ζ by ITC, in words” value at 14-3-3-ζ [5] is “a Kd could not be determined by ITC; also recorded: the interaction is weak, in the millimolar range”.
For the substance “GS KLLMIIHDRREFAKFEKEKMNAKWDTGENPIYKSAVTTVVNPKYEGK (GSKLLMIIHDRREFAKFEKEKMNAKWDTGENPIYKSAVTTVVNPKYEGK; left off: His10, N-terminal, cleaved) [β1A wt, recombinant β1A integrin tail, residues 752–798]”, the “binding to 14-3-3-ζ by fluorescence polarization, in words” value with 14-3-3-ζ [1] is “clearly binds”. In the assay with 14-3-3-ζ [1] (fluorescence polarization, tail labeled with fluorescein-5-maleimide at engineered C-terminal Cys, single-site model), this substance registered a Kd of 95 ± 16 µM. In the assay with 14-3-3-ζ S58E, the “change of integrin tail resonance intensity with 14-3-3-ζ S58E, in words” value was “the intensities change even less”. In addition, in the assay with 14-3-3-ζ S58A, the “change of integrin tail resonance intensity with 14-3-3-ζ S58A compared to wt, in words” value is reported as “significant reduction in β1A resonance intensity change”. In addition, in the assay with 14-3-3-ζ [4], the “change of integrin tail resonances on addition of 14-3-3-ζ, in words” value is given as “intensity reduction for several resonances”.
